Results: patent US8420884B2, “Models of malignant brain cancer, and therapeutic siRNAs against oncogenic signaling pathways, and methods and kits for uses therefor” (Tufts Medical Center Inc., priority 2008, dated 2013)
Entries after “also recorded” stand apart in the source; their conditions may differ.

What was measured:
GBM culture 2414 = assay: Cytotoxicity of NXD30001 and 17-AAG in GBM cultures; format: cell-based, mouse; conditions: GBM 2414; mean of three independent experiments ± standard deviation
Protocol: (§1) Primary cultures of tumors or newborn mice astrocytes were established as follows: tumors or P0 neonate cortices were excised and minced in 0.25% trypsin (wt/vol) 1 mM EDTA and allowed to disaggregate for 15 min at 37° C. The resulting cell suspension was then strained through a 70-μm cell strainer (Falcon). The single suspension of cells was washed in PBS twice and plated on 0.2% gelatin-coated tissue culture plates. Cells were fed every 24 hr with fresh medium that consisted of DMEM supplemented with 10% heat-inactivated FBS and antibiotics. The primary cultures of astrocytes were routinely stained for markers of astrocytic lineages by immunofluorescence.
(§2) Cytotoxicity of NXD30001 was assessed in GMB cell proliferating cultures obtained from clinical mouse subjects and was compared to that of 17-(Allylamino)-17-demethoxygeldanamycin (17-AAG), an ansamycin antibiotic which binds to HSP90. Data obtained was analyzed as half maximum inhibitory concentration (1050) values (Table 3).

GBM culture 102 = assay: as above; format: cell-based, mouse; conditions: GBM 102; mean of three independent experiments ± standard deviation
Protocol: as §1, §2

GBM culture 42 = assay: as above; format: cell-based, mouse; conditions: GBM 42; mean of three independent experiments ± standard deviation
Protocol: as §1, §2

GBM culture 46 = assay: as above; format: cell-based, mouse; conditions: GBM 46; mean of three independent experiments ± standard deviation
Protocol: as §1, §2

GBM culture 2734 = assay: as above; format: cell-based, mouse; conditions: GBM 2734; mean of three independent experiments ± standard deviation
Protocol: as §1, §2

GBM culture 2000 = assay: as above; format: cell-based, mouse; conditions: GBM 2000; mean of three independent experiments ± standard deviation
Protocol: as §1, §2

GBM-1 cells = assay: as above; format: cell-based, mouse; conditions: mean of three independent experiments ± standard deviation
Protocol: as §1, §2

GBM-2 cells = assay: as above; format: cell-based, mouse; conditions: mean of three independent experiments ± standard deviation
Protocol: as §1, §2

GBM culture 69 = assay: as above; format: cell-based, mouse; conditions: GBM 69; mean of three independent experiments ± standard deviation
Protocol: as §1, §2

GBM culture 2231 = assay: as above; format: cell-based, mouse; conditions: GBM 2231; mean of three independent experiments ± standard deviation
Protocol: as §1, §2

GBM culture 2415 = assay: as above; format: cell-based, mouse; conditions: GBM 2415; mean of three independent experiments ± standard deviation
Protocol: as §1, §2

GBM culture 41 = assay: as above; format: cell-based, mouse; conditions: GBM 41; mean of three independent experiments ± standard deviation
Protocol: as §1, §2

GBM culture 103 = assay: as above; format: cell-based, mouse; conditions: GBM 103; mean of three independent experiments ± standard deviation
Protocol: as §1, §2

GBM culture 2227 = assay: as above; format: cell-based, mouse; conditions: GBM 2227; mean of three independent experiments ± standard deviation
Protocol: as §1, §2

[1] = system: recurrent and newly diagnosed GBMs; conditions: unselected patients; phase II; cited from earlier work
[2] = system: GBM tumors in conditional EGFR animals; conditions: animal number 2148; 80 days
Protocol: Bioluminescence was measured noninvasively using the IVIS 200 imaging system (Xenogen). For live imaging, the surface areas of focus for imaging were depilated using commercial depilatory creams. Images were taken 10 min after IP injection of luciferin (225 mg/kg, Xenogen) to allow sufficient time for distribution of luciferin, with a 60 second photon acquisition during which mice were sedated via continuous inhalation of 3% isoflurane. For organ imaging post luciferin injection, animals were incubated for 10 min and perfused transcardially with saline. Bioluminescence imaging was then performed on individually dissected organs. Signal intensity was quantified for defined regions of interest as photon count rate per unit body area per unit solid angle subtended by the detector (units of photons/s/cm^2/steradian). All image analyses and bioluminescent quantification were performed using Living Image software v. 2.50 (Xenogen).
Conditional EGFR animals were examined using bioluminescence imaging at different periods of time after tumor induction with Ad-Cre-recombinase by the methods above.

GBMs = conditions: GBM patients; cited from earlier work

C=CCNC1=C2C[C@@H](C)C[C@H](OC)[C@H](O)[C@@H](C)/C=C(\C)[C@H](OC(N)=O)[C@@H](OC)/C=C\C=C(/C)C(=O)NC(=CC1=O)C2=O [17-AAG, 17-(Allylamino)-17-demethoxygeldanamycin]
IC50 (GBM culture 2414): 205 ± 13.1 nM | IC50 (GBM culture 102): 626.2 ± 6 nM | IC50 (GBM culture 42): 166 ± 24.9 nM | IC50 (GBM culture 46): 91.9 ± 1.4 nM | IC50 (GBM culture 2734): 381 nM | IC50 (GBM culture 2000): 345 ± 75.5 nM | IC50 (GBM-1 cells): 208 ± 9.6 nM | IC50 (GBM-2 cells): 1100 ± 119 nM | IC50 (GBM culture 69): 91 nM | IC50 (GBM culture 2231): 737 ± 72 nM | IC50 (GBM culture 2415): 329 ± 50.1 nM | IC50 (GBM culture 41): 100 ± 5 nM | IC50 (GBM culture 103): 794 ± 28.7 nM | IC50 (GBM culture 2227): 712 nM

C#Cc1cccc(Nc2ncnc3cc(OCCOC)c(OCCOC)cc23)c1 [Tarceva, erlotinib]
overall efficacy [1]: minimal when compared with historical data | outcome by bioluminescence imaging [2]: essentially cured by treatment; also recorded: essentially been cured of cancer

COc1cc2ncnc(Nc3ccc(F)c(Cl)c3)c2cc1OCCCN1CCOCC1 [gefitinib]
overall efficacy [1]: minimal when compared with historical data

CO[C@H]1C[C@@H]2CC[C@@H](C)[C@@](O)(O2)C(=O)C(=O)N2CCCC[C@H]2C(=O)O[C@H]([C@H](C)C[C@@H]2CC[C@@H](OC(=O)C(C)(CO)CO)[C@H](OC)C2)CC(=O)[C@H](C)/C=C(\C)[C@@H](O)[C@@H](OC)C(=O)[C@H](C)C[C@H](C)/C=C/C=C/C=C/1C [temsirolimus]
Phase II results of two clinical trials (GBMs): negative, with no improvement in response rates, progression-free survival or overall survival
